Results reported in US20090124656A1, “Heterocyclic Oxime Compounds a Process for Their Preparation and Pharmaceutical Compositions Containing Them” (LES LABORATOIRES SERVIER, priority 2005, published 2009).

System: ob/ob mouse
Test: Antidiabetic and hypolipaemic effect in the ob/ob mouse
Format: in vivo
Conditions: dose of 3 mg/kg for 4 days
Text: Mutations in laboratory animals and also different sensitivities to dietary regimens have allowed the development of animal models having non-insulin-dependent diabetes and hyperlipidaemia associated with obesity and with resistance to insulin.
Genetic mice models (ob/ob) (Diabetes, 1982, 31 (1), 1-6) and Zucker (fa/fa) rats have been developed by various laboratories in order to understand the physiopathology of those diseases and test the effectiveness of new antidiabetic compounds (Diabetes, 1983, 32, 830-838).
Antidiabetic and Hypolipaemic Effect in the ob/ob Mouse
The 10-week-old female ob/ob mouse (Harlan) is used for the in vivo tests. The animals are kept in a light-darkness cycle of 12 hours at 25° C. The mouse has a basal hyperglycaemia of 2 g/l. The animals are randomly selected with regard to their glycaemia to form groups of six. […] […] The control groups receive the solvents under the same conditions as the treated groups.
The activity of the products is evaluated by measuring glycaemia 24 hours after the final administration and by measuring body weight daily.

`CCOC(Cc1ccc(OCCN2CCC(C)(C)c3cc(C(=O)C4CCCCC4)ccc32)cc1)C(=O)O` (stereo not drawn) [3-{4-[2-(6-(Cyclohexylcarbonyl)-4,4-dimethyl-3,4-dihydro-1(2H)-quinolinyl)ethoxy]phenyl}-2-ethoxypropanoic acid] gave a reduction in glycaemia of 32%, a reduction in insulinaemia of 56% and a reduction in triglyceridaemia of 57%.
